“And” between values parts separate entries of the source, which are not always exact repeats. Identical values can stand only once.
How the values were obtained:
Type in all cases: physicochemical
[1] = Test 2: crystal stability by coloration, absorbance (390 nm) of crystals dissolved in dimethylformamide; settings: for Absorbance of solution of crystals just after preparation / Absorbance of solution of crystals after stored at 60° C. for 15 days: 1 g crystals in 10 mL dimethylformamide; for Change in Absorbance: after 60° C. for 15 days minus just after preparation
Experimental: In the method according to EXAMPLE 3, the amount of ethanol added to the mixed solution in which the wet crystals of the solvate of ethanol-water of lansoprazole are suspended was changed, and the stability of thus obtained crystals was compared.
The crystals obtained from each of mixed solution systems shown in Table 2 below were each dissolved in dimethylformamide just after the preparation and after stored at 60° C. for 15 days, and the absorbance (390 nm) of thus obtained solutions of crystals was measured. The degree of coloration was compared as an indicator of the crystal stability.
The absorbance of the solution prepared by dissolving 1 g of crystals into 10 mL of dimethylformamide was measured with the use of a spectral photometer (Jasco No. 0214332).
In addition, the pH of each mixed solution in which crystals are suspended was adjusted to about 9 with an aqueous ammonia solution.

[2] = Test 1: storage stability of lansoprazole crystals, content by HPLC; settings: for Residual ratio after stored for 6 months at 40° C.: [(Content after stored for 6 months at 40° C.)/(Initial Content)]×100; for Initial Content / Content after stored for 6 months at 40° C.: content of lansoprazole in crystals, wt %, HPLC; for Initial Content: before storage
Excerpt: The stability of the crystals of the solvate of lansoprazole (hereinafter, referred to as lansoprazole (1)) obtained by vacuum drying the wet crystals of the solvate of ethanol-water of lansoprazole obtained according to the method in EXAMPLE 2, was compared to the stability of the white crystals of lansoprazole (hereinafter, referred to as lansoprazole (2)) obtained according to the method in EXAMPLE 3.
Herein, the “content” in Table 1 refers to the content of lansoprazole in lansoprazole crystals expressed in wt %, and was measured by HPLC technique (analyzed under each of following conditions: for (1), Column: NOVA PAK, C18, 3.9×150 mm, Temperature: constant temperature of around 25° C., Mobile phase: solution prepared by adjusting the pH of methanol:water:triethylamine (weight ratio=60:40:1) with phosphoric acid to 7.0, Flow rate: 0.5 ml/min, Detector: UV 285 nm, and for (2), Column: CAPCELL PAC, C18, SG120, 4.6×250 mm, Temperature: constant temperature of around 25° C., Mobile phase: solution prepared by adjusting the pH of acetonitrile:water:triethylamine (weight ratio=40:60:1) with phosphoric acid to 7.0, Flow rate: 1 ml/min, Detector: UV 285 nm). The “residual ratio after stored for 6 months at 40° C.” was calculated by [(Content after stored for 6 months at 40° C.)/(Initial Content)]×100 (%).

[3] = Stability of crystals obtained in Example 2 (statement only)

Absorbance of solution of crystals just after preparation [1] | Absorbance of solution of crystals after stored at 60° C. for 15 days [1] | Change in Absorbance [1] | Residual ratio after stored for 6 months at 40° C. [2] | Initial Content [2] | Content after stored for 6 months at 40° C. ([2]; 6 months at 40° C.) | SMILES | further results
0.056 | 0.964 | 0.908 |  |  |  | Cc1c(OCC(F)(F)F)ccnc1C[S+]([O-])c1nc2ccccc2[nH]1 (racemic) [About 40:1, (+/−)-2-(((3-methyl-4-(2,2,2-trifluoroethoxy)-2-pyridyl)methyl)sulfinyl)benzimidazole] | 
0.054 | 1.135 | 1.081 |  |  |  | Cc1c(OCC(F)(F)F)ccnc1C[S+]([O-])c1nc2ccccc2[nH]1 (racemic) [About 160:1, (+/−)-2-(((3-methyl-4-(2,2,2-trifluoroethoxy)-2-pyridyl)methyl)sulfinyl)benzimidazole] | 
0.046 | 1.703 | 1.657 |  |  |  | Cc1c(OCC(F)(F)F)ccnc1C[S+]([O-])c1nc2ccccc2[nH]1 (racemic) [Ethanol non-added, (+/−)-2-(((3-methyl-4-(2,2,2-trifluoroethoxy)-2-pyridyl)methyl)sulfinyl)benzimidazole] | 
 |  |  | 91.3% and 84.7% and 86.8% | 99.2% and 99.3% and 99.1% | 90.6% and 84.1% and 86.0% | Cc1c(OCC(F)(F)F)ccnc1C[S+]([O-])c1nc2ccccc2[nH]1 (racemic) [lansoprazole (1), (+/−)-2-(((3-methyl-4-(2,2,2-trifluoroethoxy)-2-pyridyl)methyl)sulfinyl)benzimidazole] | 
 |  |  | ~100% | 99.7% and 99.8% | 99.6% and 99.8% | Cc1c(OCC(F)(F)F)ccnc1C[S+]([O-])c1nc2ccccc2[nH]1 (racemic) [lansoprazole (2), (+/−)-2-(((3-methyl-4-(2,2,2-trifluoroethoxy)-2-pyridyl)methyl)sulfinyl)benzimidazole] | stability of crystal compared to lansoprazole (1) ([2]; 6 months at 40° C.): more excellent stability; Residual ratio after stored for 6 months at 40° C. ([2]; listed as (2)): 99.9% and 100.0%
 |  |  |  |  |  | Cc1c(OCC(F)(F)F)ccnc1C[S+]([O-])c1nc2ccccc2[nH]1 (racemic) [lansoprazole I type crystal, (+/−)-2-(((3-methyl-4-(2,2,2-trifluoroethoxy)-2-pyridyl)methyl)sulfinyl)benzimidazole] | stability of obtained crystals [3]: stable

From patent US20080262235A1, “Method and Apparatus for Producing Oxidized Compound” (priority 2005, published 2008)
